One assay concerns gerbils. The assay can be described thus: [Sar^9, Met(O2)^11]substance P-induced tapping test. The format is in vivo. Conditions: Meriones unguiculatus, at 0.3mg/kg scoring. How it is done: More specifically, gerbils are lightly anesthetized with ether and the skull surface is exposed. […] Following injection, gerbils are placed in 1 L beaker individually and monitored for repetitive hind paw tapping. Some compounds prepared in the following Examples were tested in accordance with these testing methods.

In another assay the target is T1, Ca^2+ channel (Rattus norvegicus, UniProt P22002).
T1 construct: from tissue; host or cells: rat heart membrane preparation
The assay can be described thus: verapamil binding study in rat heart membrane preparation. Conditions: [^3H]desmethoxyverapamil binding. How it is done:
The adverse effect on Ca^2+ channel binding affinity is determined by verapamil binding study in rat heart membrane preparation. More specifically, verapamil binding study is performed as previously described by Reynolds et al, J. Pharmacol. Exp. Ther., 237, 731 (1986). Briefly, incubations are initiated by the addition of tissue to tubes containing 0.25 nM [^3H]desmethoxyverapamil and various concentrations of compounds (total volume 1 ml). Nonspecific binding is defined as radioligand binding remaining in the presence of 3-10 µM methoxyverapamil.

Assay [1] addresses T2, substance P receptor sites in IM-9 cells (Homo sapiens, UniProt P25103).
T2 construct: endogenous in cells; host or cells: human IM-9 cells
The assay can be described thus: IM-9 binding assay (inhibition of [^3H]SP binding). Conditions: inhibition of [^3H]SP binding to human IM-9 cells. The method, then: The activity of the compounds of the present invention, as substance P antagonists, is determined by their ability to inhibit the binding of substance P at its receptor sites in IM-9 cells employing radioactive ligands. The substance P antagonist activity of the herein described compounds is evaluated by using the standard assay procedure described by D. G. Payan et al as reported in J. Immunology, 133, 3260 (1984). This method essentially involves determining the concentration of the individual compound required to reduce by 50% the amount of radiolabeled substance P ligands at their receptor sites in said isolated cow tissues or IM-9 cells, thereby affording characteristic IC50 values for each compound tested. More specifically, inhibition of [^3H]SP binding to human IM-9 cells by compounds are determined in assay buffer (50 mM Tris-HCl (pH 7.4), 1 mM MnCl2, 0.02 % bovine serum albumin, bacitracin (40 µg/ml), leupeptin (4 µg/ml), chymostatin (2 µg/ml) and phosphoramidon (30 µg/ml)). The reaction is initiated by the addition of cells to assay buffer containing 0.56 nM [^3H]SP and various concentrations of compounds (total volume; 0.5 ml) and allowed to incubate for 120 min at 4 °C. […] Nonspecific binding is defined as the radioactivity remaining in the presence of 1 µM SP. The filters are placed into tubes and counted using liquid scintillation counter.

SMILES strings stand for the structures. Counter-ions that a name gives are not always drawn.

T2 sequence (P25103 whole entry): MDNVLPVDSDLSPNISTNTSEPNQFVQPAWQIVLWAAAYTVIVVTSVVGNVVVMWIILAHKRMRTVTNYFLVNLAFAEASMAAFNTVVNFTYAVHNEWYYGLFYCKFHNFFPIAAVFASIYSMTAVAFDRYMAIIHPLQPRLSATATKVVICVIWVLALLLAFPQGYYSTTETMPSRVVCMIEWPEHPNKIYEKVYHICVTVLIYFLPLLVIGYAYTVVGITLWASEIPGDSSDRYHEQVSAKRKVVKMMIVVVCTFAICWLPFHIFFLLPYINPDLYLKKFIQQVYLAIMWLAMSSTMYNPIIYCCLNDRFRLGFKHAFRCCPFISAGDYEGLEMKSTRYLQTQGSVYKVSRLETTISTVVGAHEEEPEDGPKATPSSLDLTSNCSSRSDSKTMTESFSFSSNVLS
T1 sequence (P22002 whole entry, other chains not shown): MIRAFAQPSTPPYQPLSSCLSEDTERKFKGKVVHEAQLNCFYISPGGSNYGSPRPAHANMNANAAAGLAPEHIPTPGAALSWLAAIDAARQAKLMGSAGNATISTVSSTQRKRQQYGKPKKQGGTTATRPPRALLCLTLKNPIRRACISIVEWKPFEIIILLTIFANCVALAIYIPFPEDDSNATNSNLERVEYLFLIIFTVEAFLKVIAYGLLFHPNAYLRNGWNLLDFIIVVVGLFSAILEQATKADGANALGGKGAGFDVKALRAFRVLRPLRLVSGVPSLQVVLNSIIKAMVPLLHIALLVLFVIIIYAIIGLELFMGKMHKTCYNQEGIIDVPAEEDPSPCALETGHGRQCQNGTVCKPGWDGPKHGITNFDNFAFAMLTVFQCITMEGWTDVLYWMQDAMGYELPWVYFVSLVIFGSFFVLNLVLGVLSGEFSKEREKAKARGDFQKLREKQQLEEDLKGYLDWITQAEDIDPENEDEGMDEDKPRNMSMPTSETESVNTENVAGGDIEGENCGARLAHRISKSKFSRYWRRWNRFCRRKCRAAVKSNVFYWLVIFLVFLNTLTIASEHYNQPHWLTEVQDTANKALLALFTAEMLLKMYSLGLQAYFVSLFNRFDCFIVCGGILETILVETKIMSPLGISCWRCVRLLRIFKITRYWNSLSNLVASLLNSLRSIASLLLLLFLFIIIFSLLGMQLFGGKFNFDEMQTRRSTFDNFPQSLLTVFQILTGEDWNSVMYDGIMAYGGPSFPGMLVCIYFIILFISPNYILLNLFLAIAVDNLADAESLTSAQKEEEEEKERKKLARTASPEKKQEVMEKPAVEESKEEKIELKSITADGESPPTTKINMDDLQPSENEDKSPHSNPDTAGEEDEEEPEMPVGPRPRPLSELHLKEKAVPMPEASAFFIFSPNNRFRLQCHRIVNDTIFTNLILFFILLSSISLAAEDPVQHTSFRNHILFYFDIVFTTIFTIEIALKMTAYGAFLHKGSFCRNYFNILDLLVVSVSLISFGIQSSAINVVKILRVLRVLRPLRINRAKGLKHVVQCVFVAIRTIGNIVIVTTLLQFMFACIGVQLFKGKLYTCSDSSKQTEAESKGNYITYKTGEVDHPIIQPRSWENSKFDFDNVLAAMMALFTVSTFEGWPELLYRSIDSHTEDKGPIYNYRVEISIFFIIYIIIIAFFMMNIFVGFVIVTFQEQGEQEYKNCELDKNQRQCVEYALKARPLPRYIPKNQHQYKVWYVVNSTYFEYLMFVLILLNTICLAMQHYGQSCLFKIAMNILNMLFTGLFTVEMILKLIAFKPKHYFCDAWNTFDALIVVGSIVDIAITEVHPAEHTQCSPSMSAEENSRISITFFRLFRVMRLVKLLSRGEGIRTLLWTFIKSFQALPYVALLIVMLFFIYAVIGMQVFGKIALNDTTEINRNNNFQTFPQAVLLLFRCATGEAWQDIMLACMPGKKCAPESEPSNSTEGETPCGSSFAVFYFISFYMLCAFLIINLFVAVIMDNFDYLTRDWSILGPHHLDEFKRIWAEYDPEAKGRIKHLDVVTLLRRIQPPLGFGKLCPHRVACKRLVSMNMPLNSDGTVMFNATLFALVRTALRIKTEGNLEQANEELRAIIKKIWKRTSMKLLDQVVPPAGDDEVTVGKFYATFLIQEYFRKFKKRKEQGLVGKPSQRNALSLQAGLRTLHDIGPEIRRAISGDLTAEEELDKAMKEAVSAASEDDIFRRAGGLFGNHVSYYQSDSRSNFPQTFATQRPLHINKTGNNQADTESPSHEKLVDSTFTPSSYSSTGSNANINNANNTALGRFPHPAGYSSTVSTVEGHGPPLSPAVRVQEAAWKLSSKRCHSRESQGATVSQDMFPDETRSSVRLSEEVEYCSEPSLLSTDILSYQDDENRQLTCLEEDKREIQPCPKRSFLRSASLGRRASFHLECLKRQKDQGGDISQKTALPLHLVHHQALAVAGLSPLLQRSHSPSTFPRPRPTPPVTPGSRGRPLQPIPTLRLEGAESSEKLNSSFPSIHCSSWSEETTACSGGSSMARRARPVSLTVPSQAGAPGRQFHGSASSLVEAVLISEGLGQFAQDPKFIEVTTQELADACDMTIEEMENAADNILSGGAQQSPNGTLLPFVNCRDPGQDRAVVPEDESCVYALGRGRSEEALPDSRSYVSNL
T1 sequence (P54290 25-944 partner limits assumed, other chains not shown): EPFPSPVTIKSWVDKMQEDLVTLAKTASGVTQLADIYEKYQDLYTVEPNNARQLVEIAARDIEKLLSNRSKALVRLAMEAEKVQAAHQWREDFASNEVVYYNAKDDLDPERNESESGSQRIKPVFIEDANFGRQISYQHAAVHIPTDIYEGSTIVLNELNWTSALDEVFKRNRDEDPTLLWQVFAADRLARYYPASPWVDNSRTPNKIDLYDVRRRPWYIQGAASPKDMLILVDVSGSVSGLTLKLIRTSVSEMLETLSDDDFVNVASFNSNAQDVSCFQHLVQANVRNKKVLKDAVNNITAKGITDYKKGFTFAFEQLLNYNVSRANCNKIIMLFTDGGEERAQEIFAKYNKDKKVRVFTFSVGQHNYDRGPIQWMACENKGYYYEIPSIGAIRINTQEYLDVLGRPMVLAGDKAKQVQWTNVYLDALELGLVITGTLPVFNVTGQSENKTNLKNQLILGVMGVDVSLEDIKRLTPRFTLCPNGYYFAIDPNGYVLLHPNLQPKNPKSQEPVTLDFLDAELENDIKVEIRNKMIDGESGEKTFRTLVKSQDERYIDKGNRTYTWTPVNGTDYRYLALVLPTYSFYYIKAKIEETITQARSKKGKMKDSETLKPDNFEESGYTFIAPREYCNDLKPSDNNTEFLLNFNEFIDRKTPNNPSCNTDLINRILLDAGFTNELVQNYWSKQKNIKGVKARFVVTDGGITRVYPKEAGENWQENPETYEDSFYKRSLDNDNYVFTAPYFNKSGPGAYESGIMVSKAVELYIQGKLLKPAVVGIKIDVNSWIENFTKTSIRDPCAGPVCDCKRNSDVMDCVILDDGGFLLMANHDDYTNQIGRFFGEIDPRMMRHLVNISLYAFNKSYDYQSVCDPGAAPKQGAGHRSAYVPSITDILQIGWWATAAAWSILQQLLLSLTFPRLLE
T1 sequence (P54290 945-1091 partner limits assumed, other chains not shown): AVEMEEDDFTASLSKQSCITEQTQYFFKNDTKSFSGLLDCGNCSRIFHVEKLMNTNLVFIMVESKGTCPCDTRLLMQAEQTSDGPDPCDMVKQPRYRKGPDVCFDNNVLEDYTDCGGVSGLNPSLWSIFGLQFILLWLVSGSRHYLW

The inhibition is the change of the read-out against control, counted positive when it falls. Lower therefore signals a response near the control. For orientation: IC50 means the midpoint of a concentration-inhibition curve. The low end stands for greater potency in that assay, the high end for weaker potency in that assay. In the assay on gerbils, `COc1cc2c(cc1CN[C@H]1CCCN[C@H]1c1ccccc1)N(C)C(=O)CC2` [Compound 21, (2S,3S)-3-(6-Methoxy-1-methyl-2-oxo-1,2,3,4-tetrahydroquinolin-7-yl)methylamino-2-phenylpiperidine dihydrochloride] came in with an inhibition at 0.3 mg/kg of 52%. Further, the IC50 is over 3000 nM on Ca^2+ channel and under 0.1 nM in assay [1].

(Values after EP1175417B1, “SUBSTITUTED BENZOLACTAM COMPOUNDS” (Pfizer Products Inc., priority 1999, dated 2000).)
